Laboratory results as given in US9439436B2, “Use of aryl carbamates in agriculture and other plant-related areas” (North Carolina State University, priority 2010, dated 2016).

Key:
[1] = system: methicillin-resistant S. aureus (MRSA); assay: biofilm inhibition, crystal violet reporter assay; format: cell-based
[2] = system: S. aureus strains 29213, 29740, and 25923; assay: testing of the library on S. aureus strains; format: cell-based; settings: refers to Tables 2 and 3, not given
[3] = system: S. epidermidis; assay: biofilm inhibition, crystal violet reporter assay; format: cell-based
[4] = system: vancomycin-resistant Enterococcus faecium (VRE); assay: biofilm inhibition, crystal violet reporter assay; format: cell-based
[5] = system: R. salexigens; assay: biofilm inhibition, crystal violet reporter assay; format: cell-based, Rhodospirillum salexigens
[6] = system: multi-drug resistant Acinetobacter baumannii (MDRAB); assay: biofilm inhibition, crystal violet reporter assay; format: cell-based
[7] = system: E. coli; assay: biofilm inhibition, crystal violet reporter assay; format: cell-based
[8] = system: R. salexigens; settings: reported by Yamada et al.; cited from earlier work
[9] = system: bacteria; settings: literature statement; cited from earlier work

| SMILES | melting point | other results |
| --- | --- | --- |
| CC(C)CCC[C@@H](C)C1CCC2[C@@H]3CC=C4C[C@@H](OC(=O)N5CCc6ccccc65)CC[C@]4(C)[C@H]3CC[C@]12C (some centres unmarked) | 157 to 159 °C |  |
| CC(C)CCC[C@@H](C)C1CCC2[C@@H]3CC=C4C[C@@H](OC(=O)NCCn5nccn5)CC[C@]4(C)[C@H]3CC[C@]12C (some centres unmarked) | 135 to 139 °C |  |
| CCNC(=O)NC1Cc2ccccc2C1 [Compound 3g, 1-(2,3-dihydro-1H-inden-2-yl)-3-ethylurea] | 117 °C |  |
| CC(C)[C@@H]1CC[C@@H](C)C[C@H]1OC(=O)NC1Cc2ccccc2C1 [Compound 3a, (1R, 2 S, 5R)-2-isopropyl-5-methylcyclohexyl 2,3-dihydro-1H-inden-2-ylcarbamate] | 167 to 170 °C |  |
| CC(C)(C)OC(=O)NC1Cc2ccccc2C1 [Compound 3e, tert-butyl 2,3-dihydro-1H-inden-2-ylcarbamate] | 51 to 53 °C |  |
| CCNC(=O)NCCCc1ccccc1 [Compound 4g, 1-ethyl-3-(3-phenylpropyl)urea] | 48 °C |  |
| CC(C)CCC[C@@H](C)C1CCC2[C@@H]3CC=C4C[C@@H](OC(=O)NC5Cc6ccccc6C5)CC[C@]4(C)[C@H]3CC[C@]12C (some centres unmarked) | 114 to 116 °C |  |
| CC(C)CCC[C@@H](C)C1CCC2[C@@H]3CC=C4C[C@@H](OC(=O)NCCc5ccccc5)CC[C@]4(C)[C@H]3CC[C@]12C (some centres unmarked) | 74 to 76 °C |  |
| CCNC(=S)NC1Cc2ccccc2C1 [Compound 3h, 1-(2,3-dihydro-1H-inden-2-yl)-3-ethylthiourea] | 87 to 91 °C |  |
| CCOC(=O)NCCc1ccccc1 [Compound 2d, ethyl N-(2-phenethyl) carbamate] |  | % Inhibition (200 μM 2d) of biofilm formation [3]: 63.1%; % Inhibition (200 μM 2d) of biofilm formation ([1]; 200 μM, MRSA): 68.1%; % Inhibition (200 μM 2d) of biofilm formation [4]: 80.2%; % Inhibition (200 μM 2d) of biofilm formation [5]: 59.7%; % Inhibition (200 μM 2d) of biofilm formation [6]: 52.0%; % Inhibition (200 μM 2d) of biofilm formation [7]: 40.8%; antibiofilm activity against Rhodospirillum salexigens [8]: moderate antibiofilm activity |
| CC(C)CCC[C@@H](C)C1CCC2[C@@H]3CC=C4C[C@@H](OC(=O)NCCc5ccc(Br)cc5)CC[C@]4(C)[C@H]3CC[C@]12C (some centres unmarked) | 142 to 145 °C |  |
| O=C(NC1Cc2ccccc2C1)OCc1ccccc1 [Compound 3c, benzyl 2,3-dihydro-1H-inden-2-ylcarbamate] | 159 to 161 °C |  |
| CCNC(=O)NCCn1nccn1 [Compound 5g, 1-(2-(2H-1,2,3-triazol-2-yl)ethyl)-3-ethylurea] | 109 °C |  |
| CC(C)CCC[C@@H](C)C1CCC2[C@@H]3CC=C4C[C@@H](OC(=O)NCCCc5ccccc5)CC[C@]4(C)[C@H]3CC[C@]12C (some centres unmarked) | 87 to 89 °C |  |
| CCNC(=S)NCCCc1ccccc1 [Compound 4h, 1-ethyl-3-(3-phenylpropyl)thiourea] | 51 to 53 °C |  |
| CCSC(=O)NC1Cc2ccccc2C1 [Compound 3b, S-ethyl 2,3-dihydro-1H-inden-2-ylcarbamothioate] | 107 to 110 °C |  |
| CC(C)CCC[C@@H](C)C1CCC2[C@@H]3CC=C4C[C@@H](OC(=O)N5CCCc6ccccc65)CC[C@]4(C)[C@H]3CC[C@]12C (some centres unmarked) | 107 to 110 °C |  |
| CC(C)[C@@H]1CC[C@@H](C)C[C@H]1OC(=O)NCCCc1ccccc1 [Compound 4a, (1R, 2 S, 5R)-2-isopropyl-5-methylcyclohexyl 3-phenylpropylcarbamate] | 75 to 78 °C |  |
| CCNC(=O)NCCc1ccccc1 [Compound 2g, 1-ethyl-3-phenethylurea] | 75 to 77 °C |  |
| CC(C)(C)OC(=O)NCCn1nccn1 [Compound 5e, tert-butyl 2-(2H-1,2,3-triazol-2-yl)ethylcarbamate] | 64 to 66 °C |  |
| CC1CCC(C(C)C)C(O)C1 (single isomer, unassigned; (-)) [(−)-menthol] |  | antimicrobial activity [9]: known to possess antimicrobial activity |
| CCNC(=S)NCCn1nccn1 [Compound 5h, 1-(2-(2H-1,2,3-triazol-2-yl)ethyl)-3-ethylthiourea] | 91 to 93 °C |  |
| Cc1ccc(C(C)C)c(O)c1 [thymol] |  | antimicrobial activity [9]: known to possess antimicrobial activity |
| Cc1ccc(C(C)C)cc1O [carvacrol] |  | antimicrobial activity [9]: known to possess antimicrobial activity |
| CCNC(=S)NCCc1ccccc1 [Compound 2h, 1-ethyl-3-phenethylthiourea] | 56 to 58 °C |  |
| CC(C)[C@@H]1CC[C@@H](C)C[C@H]1OC(=O)NCCc1ccccc1 [Compound 2a, (1R, 2 S, 5R)-2-isopropyl-5-methylcyclohexyl phenethylcarbamate] | 84 to 86 °C |  |

The next lines start with results.

| melting point | SMILES | other results |
| --- | --- | --- |
| 101 to 103 °C | CCNC(=O)NCCc1ccc(N)cc1 [Compound 8g, 1-(4-aminophenethyl)-3-ethylurea] |  |
| 57 to 59 °C | CC(C)[C@H]1CC[C@H](C)C[C@@H]1OC(=O)NCCc1ccccn1 [Compound 9k, (1 S,2R, 5 S)-2-isopropyl-5-methylcyclohexyl 2-(pyridin-2-yl)ethylcarbamate] |  |
| 109 to 112 °C | CCNC(=O)NCCc1c[nH]c2ccccc12 [Compound 10g, 1-(2-(1H-indol-3-yl)ethyl)-3-ethylurea] |  |
| 111 to 113 °C | CCNC(=O)N1CCc2ccccc21 [Compound 6g, N-ethylindoline-1-carboxamide] |  |
| 95 to 98 °C | COc1ccc(CCNC(=O)O[C@@H]2C[C@H](C)CC[C@H]2C(C)C)cc1 [Compound 12a, (1R, 2 S, 5R)-2-isopropyl-5-methylcyclohexyl 4-methoxyphenethylcarbamate] |  |
| 88 to 91 °C | CCNC(=S)N1CCc2ccccc21 [Compound 6h, N-ethylindoline-1-carbothioamide] |  |
| 68 to 70 °C | CCSC(=O)NCCc1c[nH]c2ccccc12 [Compound 10b, S-ethyl 2-(1H-indol-3-yl)ethylcarbamothioate] |  |
| 63 to 65 °C | CCOC(=O)NCCc1ccc(Br)cc1 [Compound 11d, ethyl 4-bromophenethylcarbamate] |  |
| 59 to 63 °C | CC(C)[C@@H]1CC[C@@H](C)C[C@H]1OC(=O)NCCc1ccccn1 [Compound 9a, (1R, 2 S, 5R)-2-isopropyl-5-methylcyclohexyl 2-(pyridin-2-yl)ethylcarbamate] | IC50 values against MRSA (in words) ([1]; refers to Tables 2 and 3, not given): lowest IC50 values; activity against 29213, 29740, and 25923 (in words) [2]: worked well |
| 104 to 106 °C | CC(C)[C@@H]1CC[C@@H](C)C[C@H]1OC(=O)NCCc1ccc(Br)cc1 [Compound 11a, (1R, 2 S, 5R)-2-isopropyl-5-methylcyclohexyl 4-bromophenethylcarbamate] |  |
| 70 to 73 °C | Nc1ccc(CCNC(=O)OCc2ccccc2)cc1 [Compound 8c, benzyl 4-aminophenethylcarbamate] |  |
| 137 to 139 °C | CCNC(=O)NCCc1ccc(Br)cc1 [Compound 11g, 1-(4-bromophenethyl)-3-ethylurea] |  |
| 55 to 57 °C | CCNC(=S)N1CCCc2ccccc21 [Compound 7h, N-ethyl-3,4-dihydroquinoline-1(2H)-carbothioamide] |  |
